Laboratory results from patent US20250381207A1, “FLAVONOID-CONTAINING COMPOSITIONS AND TREATMENT OF VIRAL DISEASES WITH SAME” (priority 2024, published 2025).

What was measured:
[1] = biological target: ACE2 (Homo sapiens, UniProt Q9BYF1); assay: In vitro fluorescence ligand binding assay (relative ACE2 inhibition); conditions: for remaining activity at 100 µM: read-out: % of control/blank fluorescence; for IC50: fluorescence binding assay, relative ACE2 inhibition
Description: A fluorescence ligand bind assay (Lora Benoit, Vinayak Shenoy, Simon Meykler, Ali Mohseni. SARS-COV-2 spike protein 13-mer subdomain corresponds to the drug-binding domain of glutamyl-propyl-tRNA synthetase 1 and is targetable by halofuginone, 22 Jul. 2021, PREPRINT (Version 1) available at Research Square [world wide web at doi.org/10.21203/rs.3.rs-738132/v1]) used to test the binding of various flavonoids. Fluorescence values increased over time (likely due to evaporation at 37° C.), but differences in fluorescence intensity after a kinetic read may be used to calculate relative ACE2 inhibition.

[2] = system: Calu-3 cell line
[3] = biological target: T1, SARS-COV-2 spike protein (Severe acute respiratory syndrome coronavirus 2, UniProt P0DTC2); assay: Surface plasmon resonance (SPR) analysis; format: binding; conditions: for Activity (actual) / Activity (calculated) / Rmax (actual) / Rmax (calculated): SPR, analyte 0.4-100 μM, SCK; for Rmax (actual) / Rmax (calculated): 25° C.
T1 construct: Target/ligand: SARS-COV2 RBD; 4815 RU captured; purchased R&D Systems, Inc., Minneapolis, MN AVI10500

[4] = SPR FIG. 15A, 50 μM, SARS-COV2 RBD on SA chip

Chain of ACE2 (Q9BYF1 18-805): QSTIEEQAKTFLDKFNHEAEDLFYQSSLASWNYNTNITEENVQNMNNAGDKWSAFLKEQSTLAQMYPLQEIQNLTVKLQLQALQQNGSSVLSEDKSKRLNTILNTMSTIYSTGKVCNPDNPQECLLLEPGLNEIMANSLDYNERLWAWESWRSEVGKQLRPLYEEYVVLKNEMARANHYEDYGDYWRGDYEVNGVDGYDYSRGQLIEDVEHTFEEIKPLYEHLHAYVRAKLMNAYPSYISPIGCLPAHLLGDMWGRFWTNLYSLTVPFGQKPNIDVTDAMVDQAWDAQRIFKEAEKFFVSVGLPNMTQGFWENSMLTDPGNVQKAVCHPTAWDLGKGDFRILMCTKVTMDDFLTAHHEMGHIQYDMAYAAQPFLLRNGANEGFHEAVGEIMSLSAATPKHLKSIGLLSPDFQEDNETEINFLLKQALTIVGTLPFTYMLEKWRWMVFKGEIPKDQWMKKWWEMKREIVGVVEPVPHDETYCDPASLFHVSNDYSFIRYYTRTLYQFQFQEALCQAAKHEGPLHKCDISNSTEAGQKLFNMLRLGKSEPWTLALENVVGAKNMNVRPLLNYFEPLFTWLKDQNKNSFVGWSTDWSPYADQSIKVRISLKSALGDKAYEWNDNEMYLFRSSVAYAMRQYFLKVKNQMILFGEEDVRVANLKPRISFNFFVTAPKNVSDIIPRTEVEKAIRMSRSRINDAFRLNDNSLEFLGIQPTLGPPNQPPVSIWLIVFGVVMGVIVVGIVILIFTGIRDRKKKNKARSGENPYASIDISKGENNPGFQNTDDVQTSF

Row | Compound | remaining activity at 100 µM [1] [%] | IC50 [1] [µM] | Activity (actual) ([3]; SARS-COV2 RBD on SA chip) [%] | Activity (calculated) ([3]; SARS-COV2 RBD on SA chip) [%] | Rmax (actual) ([3]; SARS-COV2 RBD on SA chip) [RU] | Rmax (calculated) ([3]; SARS-COV2 RBD on SA chip) [RU] | further results
1 | O=C1C[C@@H](c2ccc(O)cc2)Oc2cc(O)cc(O)c21 [Naringenin, naringenin] | 57 | 36.2 | – | – | – | – | –
2 | COc1ccc(C[C@H](N)C(=O)N[C@H]2[C@@H](O)[C@H](n3cnc4c(N(C)C)ncnc43)O[C@@H]2CO)cc1 [Puromycin, puromycin, reference compound] | – | – | – | – | – | – | Percent viable cells (%) normalized to vehicle control and puromycin ([2]; human): 0.00%
3 | C[C@@H]1O[C@@H](OC[C@H]2O[C@@H](Oc3c(-c4ccc(O)c(O)c4)oc4cc(O)cc(O)c4c3=O)[C@H](O)[C@@H](O)[C@@H]2O)[C@H](O)[C@H](O)[C@H]1O [Rutin, rutin] | 44 | 39.4 | 21 | 17 | 21.0 | 16.7 | –
4 | COc1ccc(C2CC(=O)c3c(O)cc(O)cc3O2)cc1O (stereo not drawn) [hesperetin] | – | – | – | – | – | – | Calu-3 viability after compound + SARS-COV-2 spike protein treatment, in words [2]: decrease of viability in a hesperetin concentration-dependent manner
5 | COc1ccc(-c2cc(=O)c3c(OC)c(OC)c(OC)c(OC)c3o2)cc1OC [nobiletin] | 60 | 26.5 | – | – | – | – | –
6 | hesperidin | – | – | 72 | 40 | 72.7 | 40.4 | viability normalized to SARS-COV-2 spike protein treatment alone and vehicle [2]: over 80%; Activity (50 μM) [3, 4]: 98%; Rmax (50 μM) [3, 4]: 94.3 RU; SPR binding activity, in words ([3]; initial experiment, MCK mode from 10 μM): displayed binding activity with slow dissociation; activity (inhibitory effect on binding to SARS-COV-2 spike protein and ACE2) ([3]; summary statement of Example 1): 82%
